Laboratory results as given in ChEMBL document CHEMBL5365520, “Unlocking DCAFs To Catalyze Degrader Development: An Arena for Innovative Approaches” (J Med Chem, 2023).

What was measured:
DCAF1-BRD9 = DCAF1-BRD9 (Homo sapiens, UniProt Q9H8M2+Q9Y4B6); test: PROTAC activity at DCAF1/BRD9 in HEK293T cells co expressing HiBit/FF/CAS9 assessed as reduction of protein degradation measured after 6 hrs by immunoblotting analysis; type: cell-based
[1] = biological target: DCAF11-BRD4 (Homo sapiens) (UniProt O60885+Q8TEB1); test: PROTAC activity at DCAF11/BRD4 in HEK293T cells assessed as reduction of protein degradation at 1 uM measured after 24 hrs relative to control; type: cell-based; design: scale not given: the % may be the effect or the level left
Sequence of DCAF11-BRD4 (Homo sapiens) (Q8TEB1 whole entry, looked up, other chains not shown): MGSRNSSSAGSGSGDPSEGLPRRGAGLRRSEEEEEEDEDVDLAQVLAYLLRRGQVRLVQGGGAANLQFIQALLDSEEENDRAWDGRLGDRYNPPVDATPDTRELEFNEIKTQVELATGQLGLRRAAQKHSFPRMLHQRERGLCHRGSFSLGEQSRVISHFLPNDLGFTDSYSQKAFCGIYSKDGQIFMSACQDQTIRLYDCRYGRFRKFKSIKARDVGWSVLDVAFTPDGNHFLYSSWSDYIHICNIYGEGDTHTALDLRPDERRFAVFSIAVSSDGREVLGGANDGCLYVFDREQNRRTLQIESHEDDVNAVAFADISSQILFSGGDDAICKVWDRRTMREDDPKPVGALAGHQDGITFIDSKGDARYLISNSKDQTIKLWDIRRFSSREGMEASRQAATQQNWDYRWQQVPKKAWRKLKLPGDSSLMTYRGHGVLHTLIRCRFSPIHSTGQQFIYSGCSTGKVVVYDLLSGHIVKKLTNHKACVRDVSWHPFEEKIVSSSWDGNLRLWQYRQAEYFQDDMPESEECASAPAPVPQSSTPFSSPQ

[2] = biological target: DNA damage-binding protein 1 (Homo sapiens, UniProt Q16531); test: Binding affinity to N-terminal His6-tagged human DDB1 expressed in baculovirus infected Hi-5 insect cells assessed as dissociation constant by SPR analysis
Sequence of DNA damage-binding protein 1 (Q16531 whole entry): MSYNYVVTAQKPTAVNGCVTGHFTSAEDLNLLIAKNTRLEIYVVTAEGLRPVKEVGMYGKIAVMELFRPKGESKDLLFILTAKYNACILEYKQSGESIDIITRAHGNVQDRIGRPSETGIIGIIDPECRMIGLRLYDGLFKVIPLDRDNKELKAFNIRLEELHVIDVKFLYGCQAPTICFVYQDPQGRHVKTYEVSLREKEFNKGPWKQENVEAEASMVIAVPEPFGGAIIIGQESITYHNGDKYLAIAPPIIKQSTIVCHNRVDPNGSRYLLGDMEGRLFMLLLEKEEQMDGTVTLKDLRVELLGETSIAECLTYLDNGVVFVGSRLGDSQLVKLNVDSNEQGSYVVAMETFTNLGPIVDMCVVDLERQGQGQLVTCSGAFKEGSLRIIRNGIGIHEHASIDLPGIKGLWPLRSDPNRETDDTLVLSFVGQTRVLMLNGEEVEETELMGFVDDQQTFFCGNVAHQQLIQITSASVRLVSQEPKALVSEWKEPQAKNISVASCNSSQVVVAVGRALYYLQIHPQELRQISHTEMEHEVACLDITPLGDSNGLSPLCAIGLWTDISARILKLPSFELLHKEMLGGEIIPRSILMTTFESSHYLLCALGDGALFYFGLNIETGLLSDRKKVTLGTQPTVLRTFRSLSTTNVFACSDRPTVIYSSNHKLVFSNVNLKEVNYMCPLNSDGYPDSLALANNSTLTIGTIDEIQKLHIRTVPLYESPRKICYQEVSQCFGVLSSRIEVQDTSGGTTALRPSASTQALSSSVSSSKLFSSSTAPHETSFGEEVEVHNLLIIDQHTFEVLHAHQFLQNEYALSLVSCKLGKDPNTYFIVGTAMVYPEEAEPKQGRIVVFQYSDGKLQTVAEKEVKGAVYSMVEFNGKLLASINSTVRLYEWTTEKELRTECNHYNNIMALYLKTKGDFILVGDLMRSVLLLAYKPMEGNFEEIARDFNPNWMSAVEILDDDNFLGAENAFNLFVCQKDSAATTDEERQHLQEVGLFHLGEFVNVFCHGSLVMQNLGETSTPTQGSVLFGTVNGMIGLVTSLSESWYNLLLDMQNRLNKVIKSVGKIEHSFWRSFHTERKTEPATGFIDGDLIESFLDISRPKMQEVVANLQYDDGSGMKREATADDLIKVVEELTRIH

[3] = biological target: von Hippel-Lindau disease tumor suppressor/Bromodomain-containing protein 4 (Homo sapiens, UniProt O60885+P40337); test: PROTAC activity at VHL/BRD4 in human LNCaP cells assessed as reduction in protein degradation measured after 6 hrs by Western blot analysis; type: cell-based
Sequence of von Hippel-Lindau disease tumor suppressor/Bromodomain-containing protein 4 (P40337 whole entry, looked up, other chains not shown, the tested form may be a part): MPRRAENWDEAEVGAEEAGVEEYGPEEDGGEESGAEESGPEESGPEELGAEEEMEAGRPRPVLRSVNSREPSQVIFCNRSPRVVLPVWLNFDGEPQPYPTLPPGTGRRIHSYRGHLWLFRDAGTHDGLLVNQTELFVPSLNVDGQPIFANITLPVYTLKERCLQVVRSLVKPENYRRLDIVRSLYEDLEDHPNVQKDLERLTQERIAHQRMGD

[4] = Binding affinity to biotinylated human DDA1/DDB1 (398 to 701 residues)/N-terminal His-ZZ-3C-tagged DCAF15/RBM39 RRM2 domain expressed in baculovirus infected Sf21 cells immobilized on SA chip assessed as dissociation constant by SPR analysis
[5] = Binding affinity to biotinylated human DDA1/DDB1 (398 to 701 residues)/N-terminal His-ZZ-3C-tagged DCAF15 expressed in baculovirus infected Sf21 cells immobilized on SA chip assessed as dissociation constant by SPR analysis
[6] = biological target: T1, DDB1- and CUL4-associated factor 16/Bromodomain-containing protein 4 (Homo sapiens, UniProt O60885+Q9NXF7); test: PROTAC activity at DCAF16/BRD4 in human PC-3 cells assessed as reduction in protein degradation; type: cell-based
T1 sequence (Q9NXF7 whole entry, looked up, other chains not shown): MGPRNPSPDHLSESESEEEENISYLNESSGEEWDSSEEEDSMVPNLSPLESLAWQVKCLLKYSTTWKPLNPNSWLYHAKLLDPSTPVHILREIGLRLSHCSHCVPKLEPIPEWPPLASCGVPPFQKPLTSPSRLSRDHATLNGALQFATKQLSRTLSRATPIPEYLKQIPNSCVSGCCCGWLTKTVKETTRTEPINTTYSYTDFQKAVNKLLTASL

[7] = biological target: T1, DDB1- and CUL4-associated factor 16/Bromodomain-containing protein 4; test: PROTAC activity at DCAF16/BRD4 in human PC-3 cells assessed as maximal degradation relative to control; type: cell-based

Sequence of DCAF1-BRD9 (Q9H8M2 whole entry): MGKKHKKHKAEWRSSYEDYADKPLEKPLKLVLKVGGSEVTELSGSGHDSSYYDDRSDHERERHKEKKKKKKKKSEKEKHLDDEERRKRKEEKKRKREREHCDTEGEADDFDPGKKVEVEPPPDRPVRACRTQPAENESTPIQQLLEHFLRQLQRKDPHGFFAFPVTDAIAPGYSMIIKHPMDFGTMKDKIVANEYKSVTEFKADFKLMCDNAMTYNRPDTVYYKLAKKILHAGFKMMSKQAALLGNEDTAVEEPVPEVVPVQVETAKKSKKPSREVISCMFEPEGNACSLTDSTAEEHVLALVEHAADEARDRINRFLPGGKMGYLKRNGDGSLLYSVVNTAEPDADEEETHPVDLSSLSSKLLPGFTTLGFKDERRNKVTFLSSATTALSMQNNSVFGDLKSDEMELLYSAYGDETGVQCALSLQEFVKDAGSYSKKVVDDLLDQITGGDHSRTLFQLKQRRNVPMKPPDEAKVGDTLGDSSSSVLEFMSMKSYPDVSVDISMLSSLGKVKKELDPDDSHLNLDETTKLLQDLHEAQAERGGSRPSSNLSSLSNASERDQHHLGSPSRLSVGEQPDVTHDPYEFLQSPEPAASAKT
Sequence of DCAF1-BRD9 (Q9Y4B6 whole entry): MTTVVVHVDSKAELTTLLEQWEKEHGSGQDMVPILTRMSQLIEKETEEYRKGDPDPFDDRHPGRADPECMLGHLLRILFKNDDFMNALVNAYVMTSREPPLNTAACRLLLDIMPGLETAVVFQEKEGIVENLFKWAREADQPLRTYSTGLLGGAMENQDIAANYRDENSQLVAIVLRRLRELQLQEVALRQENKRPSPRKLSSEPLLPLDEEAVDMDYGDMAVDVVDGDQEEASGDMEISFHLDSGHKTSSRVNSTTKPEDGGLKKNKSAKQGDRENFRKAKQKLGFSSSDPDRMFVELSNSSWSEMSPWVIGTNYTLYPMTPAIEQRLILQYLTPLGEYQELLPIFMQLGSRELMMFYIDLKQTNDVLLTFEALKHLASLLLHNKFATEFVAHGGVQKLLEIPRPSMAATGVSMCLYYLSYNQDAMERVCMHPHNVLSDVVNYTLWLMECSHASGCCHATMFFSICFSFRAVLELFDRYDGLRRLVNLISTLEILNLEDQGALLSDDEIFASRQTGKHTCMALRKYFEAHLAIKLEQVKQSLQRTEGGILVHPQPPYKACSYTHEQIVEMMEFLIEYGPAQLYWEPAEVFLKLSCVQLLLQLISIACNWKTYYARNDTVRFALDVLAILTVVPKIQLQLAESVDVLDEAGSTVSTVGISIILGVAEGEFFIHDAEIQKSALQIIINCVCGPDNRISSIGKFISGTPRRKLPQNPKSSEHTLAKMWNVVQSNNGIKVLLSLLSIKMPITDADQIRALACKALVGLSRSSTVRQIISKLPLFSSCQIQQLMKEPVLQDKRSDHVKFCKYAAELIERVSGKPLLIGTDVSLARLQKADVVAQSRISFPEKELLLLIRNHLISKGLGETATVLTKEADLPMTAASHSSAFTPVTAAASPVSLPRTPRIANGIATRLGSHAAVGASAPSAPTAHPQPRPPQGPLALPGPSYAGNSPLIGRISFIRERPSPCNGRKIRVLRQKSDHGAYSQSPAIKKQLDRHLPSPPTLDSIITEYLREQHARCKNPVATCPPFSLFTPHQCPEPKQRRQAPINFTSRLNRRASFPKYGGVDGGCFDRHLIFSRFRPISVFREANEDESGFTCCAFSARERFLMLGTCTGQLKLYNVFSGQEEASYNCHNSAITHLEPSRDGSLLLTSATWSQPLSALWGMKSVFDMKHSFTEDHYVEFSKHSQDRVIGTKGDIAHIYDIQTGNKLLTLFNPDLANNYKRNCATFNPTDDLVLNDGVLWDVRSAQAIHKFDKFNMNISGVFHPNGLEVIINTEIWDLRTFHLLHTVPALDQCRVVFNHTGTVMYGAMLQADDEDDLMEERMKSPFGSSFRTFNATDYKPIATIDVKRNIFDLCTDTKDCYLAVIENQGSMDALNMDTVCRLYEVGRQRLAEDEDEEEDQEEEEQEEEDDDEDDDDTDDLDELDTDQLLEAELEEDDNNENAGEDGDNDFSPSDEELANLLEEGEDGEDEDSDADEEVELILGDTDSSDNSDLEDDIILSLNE

## COc1cc(-c2cncc3c(=O)n(C)ccc23)c(OC)cc1CN1CCC(OCCCCCC(=O)N2CCN(c3ccc4c(NCCN)nc(C5(c6ccc(Cl)cc6)CCCCC5)nc4c3)CC2)CC1
DCAF1-BRD9
  EC50: ~500 nM

## Cc1sc2c(c1C)C(c1ccc(-c3cccc(NC(=O)c4cn5ccccc5n4)c3)cc1)=N[C@@H](CC(N)=O)c1nnc(C)n1-2
[1]
  Activity: 95%

## Cc1cc(NCCOCCOCCOCCOCCOCCN)ccc1C(=O)Nc1nc(C)c(C)s1
[2]
  Kd: < 20000 nM

## Cc1sc2c(c1C)C(c1ccc(-c3ccc(C(=O)NCc4ccc(S(=O)(=O)Nc5ccc(C)c6c(C#N)c[nH]c56)cc4)cc3)cc1)=N[C@@H](CC(=O)OC(C)(C)C)c1nnc(C)n1-2
[3]
  EC50: 0.15 nM

## NS(=O)(=O)c1ccc(S(=O)(=O)Nc2cccc3c(Cl)c[nH]c23)cc1 [INDISULAM]
[4]
  Kd: 135 nM
[5]
  Kd: > 50000 nM

## Cc1sc2c(c1C)C(c1ccc(C#CCN)cc1)=N[C@@H](CC(=O)OC(C)(C)C)c1nnc(C)n1-2
[6]
  DC50: 1.4 nM
[7]
  Emax: 84%
